Experiment [1] can be described thus: A549 cell cytotoxicity, dose response, cytotoxicity control, CellTiter-Glo luminescence, dry powder, set 14 (AID 977620). Particulars: A549 viability, CellTiter-Glo ATP luminescence, 72 h; at 30 µM (top of the series). A general note: ATP-based viability assays read luminescence as a measure of living cells.
The subject of experiment [2] is A549 viability, CellTiter-Glo ATP luminescence, 72 h. The experiment is described as above.

In general, AC50 refers to the midpoint of the concentration-response curve, whichever way the signal moves.

Active and inactive are the calls of the source.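 The calls were made as follows: active = signal-lowering curve whose fitted AC50 is at or under twice the top valid dose of that sample; inconclusive = flat fit with a moderate drop, or a poor fit; inactive = the rest.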

`Cc1cnc(NC(=O)c2cc(S(=O)(=O)N(C)C)ccc2N(C)C)s1`: the activity change, negative = cytotoxicity in experiment [1] is -11.3% (inactive).

For `Cc1cnc(NC(=O)c2cc(S(=O)(=O)N(C)C)ccc2N2CCNCC2)s1`, the activity change, negative = cytotoxicity in experiment [1] is -10.1% (inactive).

Regarding `CCN(CC)S(=O)(=O)c1ccc(N2CCCC2)c(C(=O)Nc2ncc(C)s2)c1`, the AC50 in experiment [2] is > 60 µM (inactive).

With `Cc1nc(NC(=O)c2cc(S(=O)(=O)N(C)C)ccc2N2CCCC2)n[nH]1`, the activity change, negative = cytotoxicity in experiment [1] was -5.15% (inactive).

In the case of `Cc1cnc(NC(=O)c2cc(S(=O)(=O)N3CCOCC3)ccc2N2CCCC2)s1`, the AC50 in experiment [2] was 23.3 µM.

`COc1ccc2sc(NC(=O)c3cc(S(=O)(=O)N(C)C)ccc3N3CCCC3)nc2c1`: the AC50 in experiment [2] was > 60 µM (inactive).

As for `COc1ccc2nc(NC(=O)c3cc(S(=O)(=O)N(C)C)ccc3N3CCCC3)sc2c1`, in experiment [1], the activity change, negative = cytotoxicity is -22.2% (inactive).

For `CN(C)S(=O)(=O)c1ccc(N2CCCC2)c(C(=O)Nc2ccncc2)c1`, in experiment [1], the activity change, negative = cytotoxicity is -5.75% (inactive).

For `CN(C)CCCN(Cc1cc2ccccc2[nH]c1=O)C(=O)NCc1ccccc1`, the activity change, negative = cytotoxicity in experiment [1] was -11.2% (inactive).

For `COc1ccccc1NC(=O)c1cc(S(=O)(=O)N(C)C)ccc1N1CCCC1`, the activity change, negative = cytotoxicity in experiment [1] is -6.88% (inactive).

For `CN(C)C(=O)c1cc(S(=O)(=O)N(C)C)ccc1N1CCCC1`, the activity change, negative = cytotoxicity in experiment [1] was -2.1% (inactive).

Regarding `COc1cccc2sc(NC(=O)c3cc(S(=O)(=O)N(C)C)ccc3N3CCCC3)nc12`, the activity change, negative = cytotoxicity in experiment [1] was -3.6% (inactive).

In the case of `Cc1cnc(NC(=O)c2cc(S(=O)(=O)N(CC(C)C)CC(C)C)ccc2N2CCCC2)s1`, the AC50 in experiment [2] was > 60 µM (inactive).

As for `Cc1cnc(NC(=O)c2cc(S(=O)(=O)N(C)c3ccccc3)ccc2N2CCCC2)s1`, the activity change, negative = cytotoxicity in experiment [1] is 0.919% (inactive).

On to `Cc1cnc(NC(=O)c2cc(S(=O)(=O)N(C)C)ccc2N2CCC2)s1`, for which, in experiment [2], the AC50 was > 60 µM (inactive).

With `COc1ccc(NC(=O)c2cc(S(=O)(=O)N(C)C)ccc2N2CCCC2)cc1`, in experiment [1], the activity change, negative = cytotoxicity is -10.6% (inactive).

`Cc1ccc(NC(=O)c2cc(S(=O)(=O)N(C)C)ccc2N2CCCC2)cc1`: in experiment [2], the AC50 is > 60 µM (inactive).

In the case of `Cc1cnc(NC(=O)c2cccc(S(=O)(=O)N(C)C)c2)s1`, in experiment [1], the activity change, negative = cytotoxicity is 3.41% (inactive).

For the compound `Cc1cnc(NC(=O)c2cc(S(=O)(=O)N3CCCCC3)ccc2N2CCCC2)s1`, the AC50 in experiment [2] was > 60 µM (inactive).

Consider `CN(C)S(=O)(=O)c1ccc(N2CCCC2)c(C(=O)Nc2ccc(Br)cc2)c1`, for which the AC50 in experiment [2] was > 60 µM (inactive).

For the compound `CN(C)S(=O)(=O)c1ccc(N2CCCC2)c(C(=O)NC2CCCCC2)c1`, the activity change, negative = cytotoxicity in experiment [1] was -6.42% (inactive).

For `Cc1nnc(NC(=O)c2cc(S(=O)(=O)N(C)C)ccc2N2CCCC2)s1`, the activity change, negative = cytotoxicity in experiment [1] is -7.41% (inactive).

As to `CN(C)CCCN(Cc1cc2ccccc2[nH]c1=O)C(=O)Nc1ccccc1`, the activity change, negative = cytotoxicity in experiment [1] is -3.6% (inactive).

Regarding `Cc1cnc(NC(=O)c2cc(S(=O)(=O)N(C)C)ccc2C2CCCC2)s1`, the AC50 in experiment [2] is > 60 µM (inactive).

Turning to `CN(C)S(=O)(=O)c1ccc(N2CCCC2)c(C(=O)Nc2ccccc2Cl)c1`, in experiment [1], the activity change, negative = cytotoxicity was -2.95% (inactive).

Regarding `CN(C)S(=O)(=O)c1ccc(N2CCCC2)c(C(=O)Nc2cccc(F)c2)c1`, the activity change, negative = cytotoxicity in experiment [1] is -13.3% (inactive).

With `Cc1cnc(NC(=O)c2cc(S(=O)(=O)N(C)C)ccc2N2CCCCC2)s1`, the AC50 in experiment [2] was > 60 µM (inactive).

For `CN(C)S(=O)(=O)c1ccc(N2CCCC2)c(C(=O)Nc2nc3ccccc3s2)c1`, in experiment [2], the AC50 was 25.9 µM.

Regarding `Cc1cnc(NC(=O)c2cc(S(=O)(=O)N3CCNCC3)ccc2N2CCCC2)s1`, the AC50 in experiment [2] is > 60 µM (inactive).

In the case of `CN(C)S(=O)(=O)c1ccc(N2CCCC2)c(C(=O)Nc2ccccc2)c1`, the AC50 in experiment [2] is > 60 µM (inactive).

In the case of `Cc1cnc(NC(=O)c2cc(S(=O)(=O)NCc3ccccc3)ccc2N2CCCC2)s1`, in experiment [1], the activity change, negative = cytotoxicity is -16.4% (inactive).

`Cc1ccccc1NC(=O)c1cc(S(=O)(=O)N(C)C)ccc1N1CCCC1`: the activity change, negative = cytotoxicity in experiment [1] was -11.9% (inactive).

Regarding `CCN(CC)c1ccc(S(=O)(=O)N(C)C)cc1C(=O)Nc1ncc(C)s1`, the AC50 in experiment [2] was > 60 µM (inactive).

Consider `CN(C)S(=O)(=O)c1ccc(N2CCCC2)c(C(=O)N2CCOCC2)c1`, for which the activity change, negative = cytotoxicity in experiment [1] is -6.88% (inactive).

On to `CN(C)S(=O)(=O)c1ccc(N2CCCC2)c(C(=O)Nc2cccnc2)c1`, for which, in experiment [1], the activity change, negative = cytotoxicity was -10% (inactive).

As for `CN(C)S(=O)(=O)c1ccc(N2CCCC2)c(C(=O)Nc2nccs2)c1`, the AC50 in experiment [2] was > 60 µM (inactive).
